Test results: US20130040882A1, “USE OF FIBROBLAST GROWTH FACTOR FRAGMENTS” (NOVARTIS AG, priority 2003, published 2013)
Where “and” joins values, the source holds several entries; their conditions need not be identical. Identical values can stand only once.

Tested on: transcript levels in tissues (GH/IGF and glucagon/insulin axes, SSTR signalling)
Type: in vivo, cynomolgus monkeys
[1] = pituitary, 0.1 mg/animal/14 day, control 72
[2] = pituitary, 0.1 mg/animal/14 day, control 91
[3] = pituitary, 0.1 mg/animal/14 day, control 198
[4] = pituitary, 0.1 mg/animal/14 day, control 225

cyclo[4-(NH2—C2H4—NH—CO—O)Pro-Phg-DTrp-Lys-Tyr(4-Bzl)-Phe] [SOM230]
ATPase, H+/K+ exchanging, beta polypeptide expression ↓ (fold change) (liver): polypeptide ↓ x2 | Adenylyl cyclase-associated protein expression ↑ (fold change) (liver): ↑ x1.5 | Arginine vasopressine receptor 2 expression ↑ (fold change) (liver): receptor 2 ↑ x2.5 | B lymphoid tyrosine kinase expression ↑ (fold change) (liver): ↑ x3.5 | BCL2-like 1 expression ↓ (fold change) (liver): ↓ x3.5 | Bone-derived GF expression ↑ (fold change) (liver): ↑ x3 | Bruton agammaglobulinemia a tyrosine kinase expression ↑ (fold change) (liver): ↑ x1.5 | Butyrate response factor 2 (EGF-response factor 2) expression ↑ (fold change) (liver): x2 | Ca++ channel, voltage-dependent, P/Q type, alpha 1A subunit expression ↓ (fold change) (liver): subunit ↓ x2.5 | Calcium/calmodulin-dependent protein kinase kinase 2, β expression ↑ (fold change) (liver): ↑ x3 | Calmodulin 2 (phosphorylase kinase, δ) expression ↑ (fold change) (liver): kinase, δ) ↑ x2 | Cdk 5, regulatory subunit 1 expression ↑ (fold change) (liver): subunit 1 ↑ x2.5 | Cdk like-2 expression ↓ (fold change) (liver): x2 | Cdki1A (p21/Cip1) expression ↑ (fold change) (liver): (p21/Cip1) ↑ x6 | Cdki 2D (p19, inhibits CDK4) expression ↓ (fold change) (liver): ↓ x2.5 | Corticosteroid binding globulin precursor expression ↑ (fold change) (liver): precursor ↑ x2 | DAG kinase, α (80 kD) expression ↑ (fold change) (liver): (80 kD) ↑ x3 | DAG kinase, δ (130 kD) expression ↑ (fold change) (liver): (130 kD) ↑ x1.5 | Death-associated protein 6 expression ↓ (fold change) (liver): ↓ x2.5 | Dopamine receptor D2 expression ↑ (fold change) (liver): receptor D2 ↑ x3.5 | Dopamine receptor D3 expression ↑ (fold change) (liver): receptor D3 ↑ x2 | EGF (β-urogastrone) expression ↓ (fold change) (liver): urogastrone) ↓ x2.5 | EGF-like repeats and discoidin I-like domains 3 expression ↓ (fold change) (liver): domains 3 ↓ x1.5 | EGFR (avian erythroblastic leukemia viral (v-erb-b) oncogene homolog) expression ↑ (fold change) (liver): homolog) ↑ x2 | FGFR 2 (bacteria-expressed kinase, keratinocyte growth factor receptor, craniofacial dysplasia) expression ↑ (fold change) (liver): dysplasia) ↑ x2 | Fas-activated serine/threonine kinase expression ↑ (fold change) (liver): kinase ↑ x1.5 | Fms-related tyrosine kinase 1(VEGF/vascular permeability factor receptor) expression ↓ (fold change) (liver): receptor) ↓ x1.5 | GABA (A) receptor, γ2 precursor expression ↑ (fold change) (liver): precursor ↑ x4 | GABA(A) receptor-associated protein expression ↑ (fold change) (liver): protein ↑ x1.5 | GCSF expression ↑ (fold change) (liver): GCSF ↑ x3.5 | GFR-bound protein 2 expression ↓ (fold change) (liver): protein 2 ↓ x2.5 | Gene expression (AvgDiff): GR (liver): 80 | Gene expression (AvgDiff): IGF-2 (liver): 269 | Gene expression (AvgDiff): IGFBP2 (liver): 4,476 | Gene expression (AvgDiff): Insulin promoter factor 1, homeodomain transcription factor (liver): 42 | Glucacon receptor expression ↑ (fold change) (liver): ↑ x5 | Glutamate receptor, metabotropic 4 expression ↑ (fold change) (liver): ↑ x1.5 | Glycosylphosphatidylinositol specific phospholipase D1 expression ↓ (fold change) (liver): ↓ x1.5 | Growth differentiation factor 1 expression ↑ (fold change) (liver): 1 ↑ x3 | IFN regulatory factor 5 expression ↑ (fold change) (liver): factor 5 ↑ x2.5 | IFN-induced leucine zipper protein expression ↑ (fold change) (liver): protein ↑ x1.5 | IFN-inducible RNA-dependent protein kinase expression ↑ (fold change) (liver): protein kinase ↑ x4 | IFN-related developmental regulator 2 expression ↓ (fold change) (liver): regulator 2 ↓ x1.5 | IFN-stimulated protein, 15 kDa expression ↓ (fold change) (liver): protein, 15 kDa ↓ x2 | IFNγ responsive transcript expression ↑ (fold change) (liver): transcript ↑ x1.5 | IGF-2 expression ↓ (fold change) (liver): IGF-2 ↓ x2.5 | IGFBP2 expression ↑ (fold change) (liver): IGFBP2 ↑ x2 | IL2 R, γ chain, precursor expression ↑ (fold change) (liver): precursor ↑ x2.5 | IP 5-phosphatase expression ↑ (fold change) (liver): ↑ x2 | Insulin promoter factor 1, homeodomain transcription factor expression ↓ (fold change) (liver): ↓ x1.5 | Natriuretic peptide receptor A/guanylate cyclase A (atrionatriuretic peptide receptor A) expression ↑ (fold change) (liver): ↑ x6 | Nck, Ash and PLC γ binding protein NAP4 expression ↑ (fold change) (liver): NAP4 ↑ x3.5 | PDGF, α polypeptide expression ↑ (fold change) (liver): polypeptide ↑ x1.5 | PDGFR, α polypeptide expression ↑ (fold change) (liver): polypeptide ↑ x2 | PI transfer protein expression ↑ (fold change) (liver): ↑ x3.5 | PI transfer protein, β expression ↓ (fold change) (liver): β ↓ x1.5 | PKC substrate 80K-H expression ↑ (fold change) (liver): 80K-H ↑ x1.5 | PKC, ι expression ↓ (fold change) (liver): PKC, ι ↓ x1.5 | PLA2, group IIA (platelets, synovial fluid) expression ↑ (fold change) (liver): fluid) ↑ x5.5 | PLC, γ1 (formerly subtype 148) expression ↑ (fold change) (liver): subtype 148) ↑ x2 | Rb 1 (including osteosarcoma) expression ↓ (fold change) (liver): ↓ x2 | Rb binding protein expression ↑ (fold change) (liver): ↑ x2.5 | Rb-like 2 (p130) expression ↑ (fold change) (liver): x3 | Receptor (calcitonin) activity modifying protein 1 precursor expression ↑ (fold change) (liver): precursor ↑ x1.5 | Solute carrier family 9 (sodium/hydrogen exchanger), isoform 3 regulatory factor 1 expression ↑ (fold change) (liver): ↑ x11.5 | Solute carrier family 11 (Na+/phosphate symporters), member 1 expression ↑ (fold change) (liver): member 1 ↑ x2.5 | TGF, β1 expression ↓ (fold change) (liver): TGF, β1 ↓ x1.5 | TGFβ activated kinase-binding protein 1 expression ↑ (fold change) (liver): protein 1 ↑ x2.5 | TGFβR III (betaglycan, 300kδ) expression ↓ (fold change) (liver): ↓ x2 | THR interacting protein 15 expression ↑ (fold change) (liver): protein 15 ↑ x1.5 | THR sulfo transferase expression ↑ (fold change) (liver): transferase ↑ x2.5 | TNF (ligand) superfamily, member 10 expression ↑ (fold change) (liver): member 10 ↑ x1.5 | TNF-α converting enzyme expression ↓ (fold change) (liver): enzyme ↓ x2 | δ sleep inducing peptide, immunoreactor expression ↑ (fold change) (liver): ↑ x2.5 | PP 1, regulatory (inhibitor) subunit 5 AvgDiff (pituitary, 0.1 mg/animal/14 day, control 20): 75 | SSTR3 AvgDiff (pituitary, 0.1 mg/animal/14 day, control 22): 57 | Cell division cycle 25B AvgDiff (pituitary, 0.1 mg/animal/14 day, control 40): 162 | GLUR 2, precursor AvgDiff (pituitary, 0.1 mg/animal/14 day, control 42): 59 | BCL2-antagonist of cell death AvgDiff (pituitary, 0.1 mg/animal/14 day, control 44): 69 | PTP, receptor type, T AvgDiff (pituitary, 0.1 mg/animal/14 day, control 58): 101 | Putative Ca++ transporting ATPase AvgDiff (pituitary, 0.1 mg/animal/14 day, control 61): 101 | K+ voltage-gated channel, Shab-related subfamily, member 1 AvgDiff (pituitary, 0.1 mg/animal/14 day, control 66): 22 | PI-3-kinase, catalytic, α polypeptide AvgDiff [1]: 21 | RAB 5C, member RAS oncogene family AvgDiff [1]: 162 | Cdk inhibitor 2C (p18, inhibits CDK4) AvgDiff (pituitary, 0.1 mg/animal/14 day, control 81): 184 | ATPase, Na+/K+ transporting, α 2 (+) polypeptide AvgDiff (pituitary, 0.1 mg/animal/14 day, control 86): 184 | PI-3-kinase, catalytic, δ polypeptide AvgDiff [2]: 34 | S-phase response (cyclin-related) AvgDiff [2]: 129 | PLC, γ 1 (formerly subtype 148) AvgDiff (pituitary, 0.1 mg/animal/14 day, control 111): 40 | SHB adaptor protein (a Src homology 2 protein) AvgDiff (pituitary, 0.1 mg/animal/14 day, control 112): 38 | PI transfer protein, β AvgDiff (pituitary, 0.1 mg/animal/14 day, control 125): 42 | ATPase, H+/K+ exchanging, α polypeptide AvgDiff (pituitary, 0.1 mg/animal/14 day, control 128): 20 | Phosphatase and tensin homolog (mutated in multiple advanced cancers 1) AvgDiff (pituitary, 0.1 mg/animal/14 day, control 129): 36 | K+ channel, subfamily K, member 3 (TASK) AvgDiff (pituitary, 0.1 mg/animal/14 day, control 132): 26 | Rab geranylgeranyltransferase, α subunit AvgDiff (pituitary, 0.1 mg/animal/14 day, control 164): 104 | MAPKKK5 AvgDiff (pituitary, 0.1 mg/animal/14 day, control 171): 278 | Neuroblastoma-amplified protein AvgDiff (pituitary, 0.1 mg/animal/14 day, control 178): 237 | Cyclin D3 AvgDiff (pituitary, 0.1 mg/animal/14 day, control 187): 338 | Cdk inhibitor 2D (p19, inhibits CDK4) AvgDiff [3]: 99 | Cyclin F AvgDiff [3]: 74 | BCL2-associated athanogene AvgDiff (pituitary, 0.1 mg/animal/14 day, control 216): 318 | Core-binding factor, runt domain, α subunit 2; translocated to, 1; cyclin D-related AvgDiff [4]: 491 | Forkhead box H1 AvgDiff [4]: 117 | Rab geranygeranyltransferase, β subunit AvgDiff (pituitary, 0.1 mg/animal/14 day, control 230): 284 | Bax gamma AvgDiff (pituitary, 0.1 mg/animal/14 day, control 258): 326 | ATPase, Na+/K+ transporting, β 3 polypeptide AvgDiff (pituitary, 0.1 mg/animal/14 day, control 292): 610 | IP-4-phosphatase, type 1, isoform b AvgDiff (pituitary, 0.1 mg/animal/14 day, control 296): 177 | BCL2/adenovirus E1B 19kD-interacting protein 3 AvgDiff (pituitary, 0.1 mg/animal/14 day, control 342): 458 | Dual specificity phosphatase 8 AvgDiff (pituitary, 0.1 mg/animal/14 day, control 493): 170 | Forkhead box O3A AvgDiff (pituitary, 0.1 mg/animal/14 day, control 497): 257 | Programmed cell death 6 AvgDiff (pituitary, 0.1 mg/animal/14 day, control 504): 635 | PKC inhibitor AvgDiff (pituitary, 0.1 mg/animal/14 day, control 2,351): 3,333 and 3,332 | ATPase, Na+/K+ transporting, β1 polypeptide expression ↑ (fold change) (spleen): polypeptide ↑ x2.5 | Adrenergic, α-2C-, receptor expression ↓ (fold change) (spleen): ↓ x2 | Arginine vasopressine receptor 1B expression ↑ (fold change) (spleen): receptor 1B ↑ x2 | Bcl-2 binding component 3 expression ↑ (fold change) (spleen): ↑ x2.5 | Ca++ channel, voltage-dependent, α2/δ subunit 1 expression ↑ (fold change) (spleen): α2/δ subunit 1 ↑ x2 | Ca++ channel, voltage-dependent, α2/δ subunit 2 expression ↑ (fold change) (spleen): ↑ x1.5
